# Results from patent US20190119635A1, “MODULATION OF T LYMPHOCYTES” (Fate Therapeutics, Inc., priority 2015, published 2019).
# Test system: CD3+ T-cells pre-isolated from human peripheral blood
# Experiment: Gene expression panel of CD3+ T-cells treated with dmPGE2 (Affymetrix U133 plus 2.0 GeneChip)
# Assay type: cell-based
# Settings: 10 μM dmPGE2, 2 hours at 37° C.; genes ATF3, CREM, GEM, CXCL2, MMP9, PLAUR, AREG, BCL2A1, DUSP4, FOS, FOSL2, JUN, MYC, NR4A2, NR4A3, SOCS1, SOCS3, ULBP2; mean of 3 donors; FIG. 1
# Protocol: RNA was extracted from CD3+ T-cells pre-isolated from human peripheral blood (AllCells, Aiameda CA) (n=3 donors) post ex vivo treatment (2 hours at 37° C. in StemSpan-ACF (StemCell Technologies, Vancouver, Canada)) with 10 μM dmPGE2 (Fate therapeutics, San Diego, Calif.) or vehicle control (DMSO).
# Following cell treatments, levels mRNA were quantitated from PicoPure isolated mRNA (Life Technologies, Carlsbad, Calif.) using Affymetrix GeneChip technology. Affymetrix U133 plus 2.0 GeneChip hybridization of all samples was performed in accordance with the manufacturer's recommendations (Affymetrix, Santa Clara, Calif.), involving roughly 200 ng of total RNA and Message Amp II (Life Technologies, Carlsbad, Calif.) standard two round amplification protocols. Probe intensities were normalized according to a log scale robust multi-array analysis (RMA) method (Affymetrix Santa Clara, Calif.). A parametric paired t-test (Benjamini-Hochberg false discovery rate <0.05, adjusted p-value/q-value <0.05, and fold change > or <2 fold) detected probes with significant changes due to the treatment with dmPGE2 and dexamethasone.
# The probe intensities were converted into linear fold changes of relative expression levels of mRNA by comparison of dmPGE2 and dexamethasone treated CD3+ T-cells in comparison to the vehicle treated control samples. […]
smiles,measurement,value
"CCCCC(C)(C)[C@H](O)/C=C/[C@H]1[C@H](O)CC(=O)[C@@H]1C/C=C\CCCC(=O)O [dmPGE2, 16,16-dimethyl PGE2]",statistically significant increase in expression (linear fold change of mRNA vs vehicle control),at least 2 fold
